The target in test [1] is T1, Histone-lysine N-methyltransferase SMYD3 (Homo sapiens, UniProt Q9H7B4).
T1 sequence (Q9H7B4 whole entry): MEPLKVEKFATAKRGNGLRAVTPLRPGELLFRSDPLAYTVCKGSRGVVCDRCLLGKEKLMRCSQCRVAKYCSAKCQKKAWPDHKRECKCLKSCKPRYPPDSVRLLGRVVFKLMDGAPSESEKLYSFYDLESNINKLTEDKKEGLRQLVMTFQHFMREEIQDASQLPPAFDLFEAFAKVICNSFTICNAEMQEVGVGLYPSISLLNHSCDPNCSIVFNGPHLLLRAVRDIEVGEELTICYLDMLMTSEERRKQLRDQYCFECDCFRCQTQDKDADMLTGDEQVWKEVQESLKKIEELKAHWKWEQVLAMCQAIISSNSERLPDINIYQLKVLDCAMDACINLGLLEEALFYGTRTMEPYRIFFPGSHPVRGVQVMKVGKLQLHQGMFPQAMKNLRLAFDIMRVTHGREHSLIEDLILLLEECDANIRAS
Briefly: Inhibition of full length N-terminal His-tagged SMYD3 (1 to 428 residues) (unknown origin) expressed in Escherichia coli using N-terminal GST-tagged MEKK2 as substrate preincubated for 30 mins followed by substrate addition by scintillation proximity assay in presence of [3H]SAM. (In general: SPA uses beads or plates that emit light when radiolabelled molecules are held near them.)

Test [2] deals with T1, Histone-lysine N-methyltransferase SMYD3. Briefly: Inhibition of human SMYD3 expressed in HEK293T/17 cells using FLAG-tagged MEKK2 as substrate incubated for 30 mins in low air flow area followed by incubation for 24 hrs at 37 degC by Western blot analysis. It counts as cell-based, HEK-293T.

pIC50: −log10 of the molar value. Where only a bound is given, the exact number is not on record here.

For `O=C1Cc2cc(C(=O)N[C@H]3C[C@H]4CC[C@@H](C3)N4S(=O)(=O)CC3CCN(CCCO)CC3)c(Cl)cc2N1`, the pIC50 in test [1] was 8.70.

As to `CNC1CCN(S(=O)(=O)N2[C@@H]3CC[C@H]2C[C@@H](NC(=O)c2cc4c(cc2Cl)NC(=O)C4)C3)CC1`, the pIC50 in test [1] is 8.70.

As to `NCCCS(=O)(=O)N1CCC(NC(=O)c2cc3c(cc2Cl)NC(=O)C3)CC1`, the pIC50 in test [1] is 7.10.

In the case of `O=C1Cc2cc(C(=O)N[C@H]3C[C@H]4CC[C@@H](C3)N4S(=O)(=O)C[C@H]3CCCNC3)c(Cl)cc2N1`, the figures for the pIC50 in test [1] and in test [2] were 8.40 and 5.89, respectively.

In the case of `O=C1Cc2cc(C(=O)N[C@H]3C[C@H]4CC[C@@H](C3)N4S(=O)(=O)CC3CCNCC3)c(Cl)cc2N1`, the negative-log IC50 (pIC50) is 8.40 in test [1] and 5.49 in test [2].

As for `NC1CCN(S(=O)(=O)N2[C@@H]3CC[C@H]2C[C@@H](NC(=O)c2ccc4c(c2)CC(=O)N4)C3)CC1`, the pIC50 in test [1] is 9.00.

With `CN1CCC(CS(=O)(=O)N2[C@@H]3CC[C@H]2C[C@@H](NC(=O)c2ccc4c(c2)CC(=O)N4)C3)CC1`, the pIC50 in test [1] is 9.00.

Turning to `Cc1cc2c(cc1C(=O)N[C@H]1C[C@H]3CC[C@@H](C1)N3S(=O)(=O)N1CCC(N)CC1)CC(=O)N2`, the pIC50 in test [2] is 6.39.

In the case of `NC1CCN(S(=O)(=O)N2[C@@H]3CC[C@H]2C[C@@H](NC(=O)c2cc4c(cc2Cl)NC(=O)C4)C3)CC1`, the pIC50 in test [1] is 9.00; in test [2] it was 5.96.

`N[C@H]1CC[C@H](S(=O)(=O)N2[C@@H]3CC[C@H]2C[C@@H](NC(=O)c2ccc4c(c2)CC(=O)N4)C3)CC1`: the pIC50 in test [1] was 8.40; in test [2], 5.66.

As to `CN(C)C1CCN(S(=O)(=O)N2[C@@H]3CC[C@H]2C[C@@H](NC(=O)c2cc4c(cc2Cl)NC(=O)C4)C3)CC1`, in test [1], the pIC50 is 8.52.

On to `NC1CCN(S(=O)(=O)N2[C@@H]3CC[C@H]2C[C@@H](NC(=O)c2cc4c(cc2F)NC(=O)C4)C3)CC1`, for which the pIC50 in test [1] was 8.30.

In the case of `O=C1Cc2cc(C(=O)NC3CCN(S(=O)(=O)CC4CCNCC4)CC3)ccc2N1`, the results for the pIC50 in test [1] and in test [2] were 7.15 and under 5.00, respectively.

In turn, `NCCCS(=O)(=O)N1CCC(NC(=O)c2ccc3c(c2)CC(=O)N3)CC1` had a pIC50 in test [2] of under 5.00.

The pIC50 is the IC50 on a negative log10 scale, so that one unit is a factor of ten.
